# Data: patent US20250288645A1, “USE OF GsMTx4 AND GsMTx4 CONJUGATES TO IMPROVE RECOVERY FROM JOINT INJURY” (priority 2023, published 2025)
# “Also recorded” adds a separate entry of the source. No end group written: not given here.
# What was measured:
# Piezo1 = experiment: Bilateral ACL-injury mouse model: Piezo1 labeling (immunofluorescence); type: in vivo; details: ACL-I mice, 3 weeks post-ACL-I, versus saline-treated ACL-I mice
# Excerpt: Some of the studies reported below involved a murine model of animals which were subjected to trauma by injuring an ACL (as an exemplar of injury to any of the four knee ligaments). Without wishing to be bound by theory, it is believed that injury to the ACL changes the mechanical loading on the joint, promoting imbalanced metabolism in articular cartilage, and promoting the development of post-traumatic OA, or “PTOA.” Animals were divided into four cohorts: the first group, the controls, were not subjected to trauma, the second group underwent bilateral ACL injury, but no further treatment, the third group underwent bilateral ACL injury, and was then administered saline solution at days 3, 10 and 17 post-injury, and the fourth group underwent bilateral ACL injury, and was then administered GsMTx4 peptide at days 3, 10 and 17 post-injury. The animals were evaluated by gait analysis, a cell vulnerability assay, and a histological evaluation/immunofluorescence assay. In one aspect, the assays compared the expression of Piezo1 and Piezo2 in chondrocytes from injured joints, from uninjured controls, and from injured joints injured and then treated with GsMTx4 and from joints that were injured and then treated only with saline solution. The study also looked at calcitonin gene-related peptide (“CGRP”)-containing (“CGRP^+”) nerve endings. […]
# mice = experiment: Gait analysis after bilateral ACL injury; type: in vivo, mouse; details: weekly subcutaneous injections, after 3 weeks
# Experimental: This Example discusses studies in which mice were first divided into three groups: Group 1, control animals, were not injured, but were injected with GsMTx4, Group 2 mice were given a bilateral ACL injury in their hind legs, and then given weekly subcutaneous injections of saline, and (3) Group 3 mice were given a bilateral ACL injury in their hind legs, and then given weekly subcutaneous injections of GsMTx4.
# After 3 weeks, the gait of the animals in each group was studied for the following metrics: hind paw stride length, hind paw average speed, hind paw swing speed, and step cycle.
# C57Bl/6 male mice = experiment: Massive rotator cuff tear (RCT) mouse model: humeral head cartilage histology; type: in vivo
# Experimental: A massive rotator cuff tear (RCT) model was performed by surgical ligation of the supraspinatus and infraspinatus tendons of the right shoulder of 14-week-old C57Bl/6 male and female mice through a deltoid splitting approach. Mice were anesthetized with 2% isoflurane gas mixed with oxygen. A single dose of buprenorphine SR (0.5 mg/kg) was injected subcutaneously at the nape. The right shoulder was prepped using a chemical hair removal agent, followed by betadine solution for 2 minutes and a rinse with 70% ethanol. The remaining steps were performed under sterile technique. A #11 scalpel blade was used to sharply incise the skin and subcutaneous tissues in a longitudinal incision over the palpable border of the lateral shoulder. The deltoid fascia and muscle were sharply incised in line with the skin incision with care not to dissect distally along the humerus to protect the axillary nerve. A pair of forceps were then used to grasp the proximal humerus and pull laterally to place the glenohumeral joint on gentle tension. A 25G needle was passed under the supraspinatus and infraspinatus tendons. […] Animals were monitored daily for 3 days post-operatively, and no adverse events were noted. […]
# Humeri were harvested and chondrocyte mechano-vulnerability was quantified before and after 2 mJ impact according to methods above. […]
# CGRP^+ pain nerves = experiment: Bilateral ACL-injury mouse model: knee nerve innervation and CGRP+ pain nerves; type: in vivo
# Excerpt: Some of the studies reported below involved a murine model of animals which were subjected to trauma by injuring an ACL (as an exemplar of injury to any of the four knee ligaments). Without wishing to be bound by theory, it is believed that injury to the ACL changes the mechanical loading on the joint, promoting imbalanced metabolism in articular cartilage, and promoting the development of post-traumatic OA, or “PTOA.” Animals were divided into four cohorts: the first group, the controls, were not subjected to trauma, the second group underwent bilateral ACL injury, but no further treatment, the third group underwent bilateral ACL injury, and was then administered saline solution at days 3, 10 and 17 post-injury, and the fourth group underwent bilateral ACL injury, and was then administered GsMTx4 peptide at days 3, 10 and 17 post-injury. The animals were evaluated by gait analysis, a cell vulnerability assay, and a histological evaluation/immunofluorescence assay. In one aspect, the assays compared the expression of Piezo1 and Piezo2 in chondrocytes from injured joints, from uninjured controls, and from injured joints injured and then treated with GsMTx4 and from joints that were injured and then treated only with saline solution. The study also looked at calcitonin gene-related peptide (“CGRP”)-containing (“CGRP^+”) nerve endings. CGRP^+ nerves have been identified as principal coordinators of thermal and mechanical sensitivity in various pain models. See, e.g., Powell, et al., Nat Commun 12, 5812 (2021); doi.org/10.1038/s41467-021-26100-6.
# chondrocytes = experiment: Mechano-vulnerability (impact loading) assay on cartilage of treated ACL-injured mice; type: in vivo, mouse; details: ACL-I mice, 3 weeks post-ACL-I, versus saline-treated ACL-I mice
# Excerpt: OA was induced by a bilateral anterior cruciate ligament-injury (ACL-I) in 8-week-old C57BL/6 mice. Piezo1-labeling intensity in articular chondrocytes and nerves in subchondral bone, the OA severity (OARSI score), the mechano-vulnerability of chondrocytes, and gait parameters was compared among four experimental groups-Control (uninjured), ACL-injured, ACL-injured with saline administration, and ACL-injured with GsMT4 treatment—at 3-weeks post-ACL-I.
# FIG. 1E is a diagram showing impact loading applied to cartilage over a portion of a mouse bone as part of an assay for studying the resulting area of chondrocyte death, sometimes referred to a “mechano-death” or “mechano-vulnerability” assay. See, Kotelsky, et al., Osteoarthritis and Cartilage Open, 4 (1): 100227 (2022); doi.org/10.1016/j.ocarto. 2021.100227.
# FIG. 2C presents two sets of two photos from animals that have undergone bilateral ACL injury. The animal in the photos in the top row was injected after the injury with saline solution (“ACLL+saline”), while the animal in the bottom row was injected at the same time points post-injury with GsMTx4 (“ACLI+GsMTx4”). The left photos show the amount of dead cells (in red, in the color original, compared to living cells, which have taken up a green label) and after application of a 1 mJ force. FIG. 2D presents a graph showing the results of the studies.
# [1] = ACL-I mice, GsMTx4 post-injury, versus saline-treated ACL-I mice
substance,measurement,setting,value
GsMTx4 (GCLEFWWKCNPNDDKCCRPKLKCSKLFKLCNFSF-NH2; ends and bridges not checked; listed as Grammostola spatulata),Piezo1-labeling in chondrocytes and nerves in subchondral bones,Piezo1,reduced Piezo1-labeling in chondrocytes and nerves in subchondral bones
same,"gait (hind paw stride length, hind paw average speed, hind paw swing speed, step cycle; FIG. 3)",mice,the same or almost the same as that of mice that had not had an ACL injured
same,average humeral head cartilage thickness,"C57Bl/6 male mice; RC ligation, subcutaneous twice weekly, 14 weeks post-operatively, GsMTx4 versus saline or contralateral control joint",no difference in average humeral head cartilage thickness
same,cartilage degeneration of shoulder,"C57Bl/6 male mice; RCT, treated post-injury, versus animals not treated post-injury with GsMTx4",reduced cartilage degeneration
same,CGRP^+ pain nerves / CGRP level in injured knee,CGRP^+ pain nerves; [1],decreased CGRP^+ pain nerves; also recorded: lower levels of CGRP present
same,nerve innervation in the knee,CGRP^+ pain nerves; [1],decreased nerve innervation in the knee
same,pain nerves in the meniscus of the injured joints,"CGRP^+ pain nerves; bilateral ACL injury, versus no treatment or saline",reduced the increase of pain nerves in the meniscus
same,area of chondrocyte death by mechanical impact,chondrocytes,decreased area of chondrocyte death by impact; also recorded: decreased impact-induced mechanical-susceptibility
